Here are results for three compounds from patent US20130197043A1, “USE OF THE FETAL REPROGRAMMING OF A PPAR AGONIST” (SNU R&DB FOUNDATION, priority 2010, published 2013).

A word on the EC50: it is the concentration at which the effect is half-maximal.

In assay [1] the test system is mice subjected to fetal reprogramming. The assay is described as follows: Morris water maze test of fetal-reprogrammed mice. In kind it is in vivo. To be noted: for Morris water maze test: average time required to find the platform: 8-week old, maternal 10 mg/kg/day gestation and lactation; for Morris water maze test time: mother 10 mg/kg/day oral during the fetal reprogramming period. How it is done: An animal experiment was conducted in order to verify a memory improvement effect of the mice subjected to fetal reprogramming by PPAR δ agonist. Pregnant mice were orally administered with PPAR δ agonist, CMDD1111, at a concentration of 10 mg/kg/day during the gestation and lactation periods in order to verify effects of the invented material at the brain formation stage. When the fetus became an 8-week old adult, the Morris water maze test was conducted to compare memory between the control group and the administration group. This test can check special learning and memory, and is a task that is mainly dependent on the hippocampus in the brain. As the experiment result, the average times required to find the flatform were 26 seconds and 22 seconds (male and female, respectively) for the control group and were 9 seconds and […] (male and female, respectively) for the administration group. Therefore, it was verified that the PPAR δ agonist improved memory during the fetal programming period, and this effect was maintained until the adulthood.
The animal test was conducted in order to verify the memory improvement effect of the material according to the present invention. Compounds 5 and 9, which are the developed materials, were orally administered to the mother at a concentration of 10 mg/kg/day during the fetal reprogramming period. The Morris water maze test was used to confirm the difference in brain function between the control group and the administered group.

For assay [2] the test system is unchanged. The assay is described as follows: Treadmill endurance test of mice subjected to fetal reprogramming. In kind it is in vivo. The conditions noted are these: for running distance / running distance increase versus control / running time / running time increase versus control: maternal 10 mg/kg, gestation and lactation; for Increase Rate (Administration Group/Control Group), Distance / Increase Rate (Administration Group/Control Group), Time: 10 mg/kg/day; for muscle colour after skin removal versus control: fetal reprogramming, 10 mg/kg/day oral. As to the method: Before the experiment, mice were exercised for 5 minutes at a speed of 7 meters/min for two days so as to be adapted to exercising equipment. On day 3, the main experiment was conducted. As for the method for experiment, the mice were made to run at a speed of 10 meter/min for 60 minutes, and after that, the speed was increased at 1 meter/min once every 15 minutes until the maximum speed reaches 15 meters/min. As for the male mice, the running time was increased by 2.9 fold ([…], P<0.0001, n=6) and the running distance was increased by 3.0 fold (9927±1168 versus 3303±394 m, P<0.0001) in the PPAR δ agonist (CMDD1111)-administered mouse group than the control mouse group.
The Experiment using pregnant C57BL/6 mice was conducted in order to verify an endurance enhancement effect by fetal reprogramming of CMDD1226. […]
The experiment for verifying the fetal reprogramming effect of GW501516 and determining the optimum administration period thereof was conducted. The experiment method was shown in FIG. 1, and the experiment was conducted with respect to three kinds of administration periods (gestation period, lactation period, and both of gestation and lactation periods). As the experiment result, the group administered with PPAR δ agonist only during the gestation period had 2.6-fold and 3.2-fold increases in the running time and the running distance, respectively, and the group administered with PPAR δ agonist only during the lactation period had 2.4-fold and 3.0-fold increases in the running time and the running distance, respectively, as compared with the control group. The group administered with PPAR δ agonist during both the gestation and lactation periods had the most obvious increase in endurance, and had 5.1-fold and 6.6-fold increases as compared with the control group (FIG. 22).
The animal test was conducted in order to verify the muscle endurance enhancement and muscular function improvement effects of the material according to the present invention. […] […] The test using a treadmill was conducted in order to confirm the effect of this muscular fiber change on muscle endurance enhancement and muscular function improvement.

The subject of assay [3] is mice with high-fat-induced diabetes. The assay is described as follows: Glucose tolerance test (GTT) in mice with high-fat-induced diabetes. It counts as in vivo. To be noted: 10 mg/Kg/day over 70 days; glucose 1.5 g/kg. As to the method: The glucose tolerance test (GTT) was conducted in order to verify the diabetes improvement effect of the material according to the present invention. Glucose (1.5 g/kg) was abdominally administer to mice with high-fat-induced diabetes, which was orally administered with medicine over 70 days, and then the blood glucose level change was measured for 2 hours. […] In contrast, the mouse control group administered with the vehicle […] normal blood glucose level even after 120 minutes.

The next assay deals with T1, hPPAR δ (Homo sapiens, UniProt Q03181).
T1 construct: expressed in transfected cells; host or cells: CV-1 cells
T1 sequence (Q03181 1-441): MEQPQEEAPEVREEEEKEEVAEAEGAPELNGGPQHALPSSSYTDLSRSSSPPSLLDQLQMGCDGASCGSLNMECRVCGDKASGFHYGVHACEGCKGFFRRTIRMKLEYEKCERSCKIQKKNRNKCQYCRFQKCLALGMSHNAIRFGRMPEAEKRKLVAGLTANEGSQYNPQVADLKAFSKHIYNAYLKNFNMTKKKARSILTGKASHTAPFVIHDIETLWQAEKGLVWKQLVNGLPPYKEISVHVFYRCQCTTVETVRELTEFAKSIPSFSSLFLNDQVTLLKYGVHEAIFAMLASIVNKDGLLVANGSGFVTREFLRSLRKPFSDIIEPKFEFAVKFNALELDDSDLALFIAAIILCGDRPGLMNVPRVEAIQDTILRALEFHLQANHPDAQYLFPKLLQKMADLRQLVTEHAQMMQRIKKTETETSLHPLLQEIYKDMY
The assay is described as follows: Transfection assay in CV-1 cells, hPPAR δ. In kind it is cell-based. The conditions noted are these: luciferase reporter. As to the method: This assay was conducted by using CV-1 cells. The cells were cultured on a 96-well plate with a DMEM medium containing 10% FBS, DBS (delipidated), and 1% penicillin/streptomycin in 37° C. of an incubator 5% of carbon dioxide. Test was conducted in four stages of cell inoculation, transfection, treatment with the developed material, and result confirmation. The CV-1 cells were inoculated on the 96-well plate at a cell density at 5,000 cells/well, and after 24 hours, transfection was performed. PPARs plasmid DNA, reporter DNA, and β-galactosidase DNA were mixed with a transfection reagent, and then used to treat the cells. The developed material was dissolved in dimethylsulfoxide (DMSO), and then was used to treat the cells by using media at various concentrations. After 24 hours of culturing in an incubator, the cells were lysed with a lysis buffer and luciferase activity and β-galactosidase activity were measured using a luminometer and a microplate reader. The measured luciferase value was calibrated with the β-galactosidase value, and this value was depicted on a graph and EC50 was determined.
On the technique in general: In a reporter assay the amount or activity of a reporter protein is the signal.

Turning to `Cc1cc(SC(Cc2ccccc2)c2sc(-c3ccc(C(F)(F)F)cc3)nc2C)ccc1OCC(=O)O` (centres unmarked) [CMDD1111], the “Morris water maze test: average time required to find the platform” value in assay [1] (female) is 6 s. The “Morris water maze test: average time required to find the platform” value in assay [1] (male) stood at 9 s. In assay [2] (female mice), the running distance amounted to 11194±261 m, the “running distance increase versus control” value is reported as 2.1 fold, the running time worked out at 761 ± 17 min and the “running time increase versus control” value is listed as 2.0 fold. In addition, in assay [2] (male mice), the running distance came to 9927±1168 m, the “running distance increase versus control” value is 3.0 fold, the running time was found to be 677 ± 78 min and the “running time increase versus control” value amounted to 2.9 fold.
As to `Cc1cc(SC(Cc2ccc(-c3ccccc3)cc2)c2sc(-c3ccc(C(F)(F)F)cc3)nc2C)ccc1OCC(=O)O` (centres unmarked) [Compound 5], in assay [3], the “blood glucose level change between 20 and 40 minutes versus control” value is given as “rapid decrease”; the “complete glucose clearance after” value turned out to be 100 min. Besides, the “Morris water maze test time” value in assay [1] came out at 8.2 s. The EC50 on hPPAR δ amounted to 3.3 nM. For the same compound, in assay [2] (Gestation + Lactation Periods), the “Increase Rate (Administration Group/Control Group), Distance” value came to 3.9 fold and the “Increase Rate (Administration Group/Control Group), Time” value turned out to be 3.6 fold. In assay [2] (Gestation Period), the “Increase Rate (Administration Group/Control Group), Distance” value is given as 2.5 fold and the “Increase Rate (Administration Group/Control Group), Time” value stood at 2.4 fold. Also, in assay [2] (Lactation Period), the “Increase Rate (Administration Group/Control Group), Distance” value stood at 2.2 fold and the “Increase Rate (Administration Group/Control Group), Time” value is recorded as 2.1 fold. Moreover, the “muscle colour after skin removal versus control” value in assay [2] was “redder than the control group”.
For the compound `Cc1cc(SC(Cc2ccc(-c3ccc(F)cc3)cc2)c2sc(-c3ccc(C(F)(F)F)cc3)nc2C)ccc1OCC(=O)O` (centres unmarked) [Compound 9], in assay [3], the “blood glucose level change between 20 and 40 minutes versus control” value is given as “rapid decrease”; the “complete glucose clearance after” value stood at 100 min. Moreover, the “Morris water maze test time” value in assay [1] was 9.7 s. Also, the midpoint of the response on hPPAR δ, the EC50, lay at 3.9 nM. Besides, in assay [2] (Gestation + Lactation Periods), the “Increase Rate (Administration Group/Control Group), Distance” value stood at 3.0 fold and the “Increase Rate (Administration Group/Control Group), Time” value amounted to 2.8 fold. Further, in assay [2] (Gestation Period), the “Increase Rate (Administration Group/Control Group), Distance” value amounted to 1.9 fold and the “Increase Rate (Administration Group/Control Group), Time” value stood at 1.9 fold. Also, in assay [2] (Lactation Period), the “Increase Rate (Administration Group/Control Group), Distance” value came out at 1.5 fold and the “Increase Rate (Administration Group/Control Group), Time” value was determined as 1.5 fold. Further, the “muscle colour after skin removal versus control” value in assay [2] is “redder than the control group”.
